In PubChem BioAssay (NCI):
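Where inhibition never reached the appropriate level, the endpoint shown equals the highest concentration tested. Otherwise, values were interpolated linearly from a five-concentration, 48-hour dose response in 96-well plates. TGI is the concentration that stops growth completely.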

How the values were obtained:
Experiment in all cases: NCI anticancer screen, dose series, 48 h
[1] = system: 786-0 renal
[2] = system: SK-MEL-28 melanoma
[3] = system: TK-10 renal
[4] = system: UACC-62 melanoma
[5] = system: HCT-15 colon
[6] = system: HCC-2998 colon
[7] = system: SK-MEL-5 melanoma
[8] = system: M14 melanoma
[9] = system: U251 CNS
[10] = system: DU-145 prostate
[11] = system: HOP-92 NSCLC
[12] = system: SNB-19 CNS
[13] = system: NCI-H460 lung
[14] = system: COLO 205 colon
[15] = system: NCI-H522 lung
[16] = system: UO-31 renal
[17] = system: T-47D breast
[18] = system: MDA-MB-231 breast
[19] = system: KM12 colon
[20] = system: OVCAR-3 ovarian
[21] = system: HOP-62 NSCLC
[22] = system: OVCAR-5 ovarian
[23] = system: MDA-N
[24] = system: HS 578T breast
[25] = system: SNB-75 CNS
[26] = system: A498 renal
[27] = system: UACC-257 melanoma
[28] = system: LOX IMVI melanoma
[29] = system: OVCAR-8 ovarian
[30] = system: RXF 393 renal
[31] = system: HCT-116 colon
[32] = system: SF-268 CNS
[33] = system: NCI/ADR-RES ovarian
[34] = system: PC-3 prostate
[35] = system: NCI-H226 lung
[36] = system: SK-MEL-2 melanoma
[37] = system: EKVX NSCLC
[38] = system: SF-295 CNS
[39] = system: A549 NSCLC
[40] = system: MALME-3M melanoma
[41] = system: MCF7 breast
[42] = system: BT-549 breast
[43] = system: CAKI-1 renal
[44] = system: HT29 colon
[45] = system: CCRF-CEM leukemia
[46] = system: SR leukemia
[47] = system: MDA-MB-435
[48] = system: IGROV1 ovarian
[49] = system: MOLT-4 leukemia
[50] = system: RPMI-8226 leukemia
[51] = system: SN12C renal
[52] = system: K-562 leukemia
[53] = system: ACHN renal
[54] = system: NCI-H23 lung
[55] = system: SF-539 CNS
[56] = system: SW-620 colon

Compound: CCOC1=C(c2ccccc2)N2CCCCC2O1 (stereo unspecified)
- TGI [1]: > 100 µM
- TGI [2]: > 63.2 µM
- TGI [3]: > 38.6 µM
- TGI [4]: 10 µM
- TGI [5]: 98.6 µM
- TGI [6]: 12.8 µM
- TGI [7]: 4.54 µM
- TGI [8]: 12.1 µM
- TGI [9]: > 100 µM
- TGI [10]: > 86.8 µM
- TGI [11]: 6 µM
- TGI [12]: > 100 µM
- TGI [13]: 15 µM
- TGI [14]: 4.7 µM
- TGI [15]: 13.4 µM
- TGI [16]: > 79.8 µM
- TGI [17]: 6.82 µM
- TGI [18]: > 48.5 µM
- TGI [19]: 14 µM
- TGI [20]: > 44.5 µM
- TGI [21]: 17.6 µM
- TGI [22]: > 59.2 µM
- TGI [23]: 21.7 µM
- TGI [24]: 33.1 µM
- TGI [25]: 28.7 µM
- TGI [26]: 32.2 µM
- TGI [27]: > 33.6 µM
- TGI [28]: 13.8 µM
- TGI [29]: > 38.5 µM
- TGI [30]: 37.4 µM
- TGI [31]: 15.2 µM
- TGI [32]: 48.1 µM
- TGI [33]: > 96.4 µM
- TGI [34]: 22.3 µM
- TGI [35]: 32.5 µM
- TGI [36]: 7.99 µM
- TGI [37]: > 100 µM
- TGI [38]: 15.5 µM
- TGI [39]: > 100 µM
- TGI [40]: 20.7 µM
- TGI [41]: 51.9 µM
- TGI [42]: 26.3 µM
- TGI [43]: > 84.2 µM
- TGI [44]: 16.9 µM
- TGI [45]: > 72.4 µM
- TGI [46]: > 31.6 µM
- TGI [47]: 16.8 µM
- TGI [48]: > 51.4 µM
- TGI [49]: > 73 µM
- TGI [50]: > 24 µM
- TGI [51]: > 41.9 µM
- TGI [52]: > 47.5 µM
- TGI [53]: > 100 µM
- TGI [54]: > 36.4 µM
- TGI [55]: 34.8 µM
- TGI [56]: 36.4 µM
